Data reported in patent publication US4948782A, “A method of promoting the growth of domestic animals with erythromycin derivative containing composition” (Kitasato Kenkyusho, priority 1987, dated 1990).

Tests used:
Format in all cases: cell-based
Escherichia coli NIHJ = assay: MIC, Escherichia coli NIHJ (EC)
[1] = tested on: Staphylococcus aureus ATCC 6538P; assay: MIC, Staphylococcus aureus ATCC 6538P (SA(1)); settings: Staphylococcus aureus, ATCC6538P, Staphylococcus aureus ATCC 6538P; read-out: MIC SA (1)
Text: (§1) The minimum inhibitory concentrations (MIC: mcg/ml) of the erythromycin derivatives of the present invention and the control erythromycin derivative (*) as the known growth promoting agent on typical test bacteria are shown in the following Tables 1 to 5.
SA(1): Staphylococcus aureus ATCC 6538P

[2] = tested on: Klebsiella pneumoniae ATCC 10031; assay: MIC, Klebsiella pneumoniae ATCC 10031 (KP); settings: ATCC10031; Klebsiella pneumoniae ATCC 10031; read-out: MIC KP
Bacillus subtilis = assay: MIC, Bacillus subtilis (BS); settings: read-out: MIC BS
[3] = tested on: Staphylococcus aureus FDA 209P; assay: MIC, Staphylococcus aureus FDA 209P (SA(2)); settings: Staphylococcus aureus, FDA209P, Staphylococcus aureus FDA 209P; read-out: MIC SA (2)
Text: as §1
SA(2): Staphylococcus aureus FDA 209P

Bacillus cereus IFO 3001 = assay: MIC, Bacillus cereus IFO 3001 (BC); settings: Bacillus cereus, IFO3001, Bacillus cereus IFO 3001; read-out: MIC BC

CCC1OC(=O)C(C)C(OC2CC(C)(OC)C(O)C(C)O2)C(C)C(OC2OC(C)CC(N(C)CC)C2O)C2(C)CC(C)=C(O2)C(C)C(OC(C)=O)C1(C)OC(C)=O (stereo not drawn) [Compound 53]
MIC (Escherichia coli NIHJ): > 100 µg/mL
MIC [1]: > 100 µg/mL
MIC [2]: > 100 µg/mL
MIC (Bacillus subtilis): > 100 µg/mL
MIC [3]: > 100 µg/mL
MIC (Bacillus cereus IFO 3001): > 100 µg/mL

CCC1OC(=O)C(C)C(OC2CC(C)(OC)C(O)C(C)O2)C(C)C(OC2OC(C)CC(N(C)CC)C2O)C2(C)CC(C)=C(O2)C(C)C2OC(=O)OC12C (stereo not drawn) [Compound 54]
MIC (Escherichia coli NIHJ): > 100 µg/mL
MIC [1]: > 100 µg/mL
MIC [2]: > 100 µg/mL
MIC (Bacillus subtilis): > 100 µg/mL
MIC [3]: > 100 µg/mL
MIC (Bacillus cereus IFO 3001): > 100 µg/mL

C#CC[N+](C)(C)C1CC(C)OC(OC2C(C)C(OC3CC(C)(OC)C(O)C(C)O3)C(C)C(=O)OC(CC)C3(C)OC(C)(C)OC3C(C)C3=C(C)CC2(C)O3)C1O (stereo not drawn) [Compound 55]
MIC (Escherichia coli NIHJ): > 100 µg/mL
MIC [1]: 12.5 µg/mL
MIC [2]: > 100 µg/mL
MIC (Bacillus subtilis): 12.5 µg/mL
MIC [3]: 12.5 µg/mL
MIC (Bacillus cereus IFO 3001): 12.5 µg/mL

C#CC[N+](C)(C)C1CC(C)OC(OC2C(C)C(OC3CC(C)(OC)C(O)C(C)O3)C(C)C(=O)OC(CC)C3(C)OB(c4ccccc4)OC3C(C)C3=C(C)CC2(C)O3)C1O (stereo not drawn) [Compound 56]
MIC (Escherichia coli NIHJ): > 100 µg/mL
MIC [1]: 50 µg/mL
MIC [2]: > 100 µg/mL
MIC (Bacillus subtilis): 50 µg/mL
MIC [3]: 100 µg/mL
MIC (Bacillus cereus IFO 3001): 100 µg/mL

C#CC[N+](C)(C)C1CC(C)OC(OC2C(C)C(OC3CC(C)(OC)C(O)C(C)O3)C(C)C(=O)OC(CC)C3(C)OC(=O)OC3C(C)C3=C(C)CC2(C)O3)C1O (stereo not drawn) [Compound 57]
MIC (Escherichia coli NIHJ): > 100 µg/mL
MIC [1]: 25 µg/mL
MIC [2]: > 100 µg/mL
MIC (Bacillus subtilis): 50 µg/mL
MIC [3]: 50 µg/mL
MIC (Bacillus cereus IFO 3001): 25 µg/mL

CC[C@H]1OC(=O)[C@H](C)[C@@H](O[C@H]2C[C@@](C)(OC)[C@@H](OC=O)[C@H](C)O2)[C@H](C)[C@@H](O[C@@H]2O[C@H](C)C[C@H]([N+](C)(C)C)[C@H]2O)[C@@]2(C)CC(C)=C(O2)[C@H](C)[C@@H](O)[C@]1(C)O [Compound 58]
MIC (Escherichia coli NIHJ): > 100 µg/mL
MIC [1]: > 100 µg/mL
MIC [2]: > 100 µg/mL
MIC (Bacillus subtilis): > 100 µg/mL
MIC [3]: > 100 µg/mL
MIC (Bacillus cereus IFO 3001): > 100 µg/mL

CC[C@H]1OC(=O)[C@H](C)[C@@H](O[C@H]2C[C@@](C)(OC)[C@@H](OC=O)[C@H](C)O2)[C@H](C)[C@@H](O[C@@H]2O[C@H](C)C[C@H]([N+](C)(C)CC)[C@H]2O)[C@@]2(C)CC(C)=C(O2)[C@H](C)[C@@H](O)[C@]1(C)O [Compound 59]
MIC (Escherichia coli NIHJ): > 100 µg/mL
MIC [1]: > 100 µg/mL
MIC [2]: > 100 µg/mL
MIC (Bacillus subtilis): > 100 µg/mL
MIC [3]: > 100 µg/mL
MIC (Bacillus cereus IFO 3001): > 100 µg/mL

C#CC[N+](C)(C)[C@H]1C[C@@H](C)O[C@@H](O[C@@H]2[C@@H](C)[C@H](O[C@H]3C[C@@](C)(OC)[C@@H](OC=O)[C@H](C)O3)[C@@H](C)C(=O)O[C@H](CC)[C@@](C)(O)[C@H](O)[C@@H](C)C3=C(C)C[C@@]2(C)O3)[C@@H]1O [Compound 60]
MIC (Escherichia coli NIHJ): > 100 µg/mL
MIC [1]: > 100 µg/mL
MIC [2]: > 100 µg/mL
MIC (Bacillus subtilis): > 100 µg/mL
MIC [3]: > 100 µg/mL
MIC (Bacillus cereus IFO 3001): > 100 µg/mL

CC[C@H]1OC(=O)[C@H](C)[C@@H](O[C@H]2C[C@@](C)(OC)[C@@H](O)[C@H](C)O2)[C@H](C)[C@@H](O[C@@H]2O[C@H](C)C[C@H]([N+](C)(C)CC)[C@H]2O)[C@@]2(C)CC(C)=C(O2)[C@H](C)[C@@H](O)[C@]1(C)O [Compound 61]
MIC (Escherichia coli NIHJ): > 100 µg/mL
MIC [1]: > 100 µg/mL
MIC [2]: > 100 µg/mL
MIC (Bacillus subtilis): > 100 µg/mL
MIC [3]: > 100 µg/mL
MIC (Bacillus cereus IFO 3001): > 100 µg/mL

CC[C@H]1OC(=O)[C@H](C)[C@@H](O[C@H]2C[C@@](C)(OC)[C@@H](O)[C@H](C)O2)[C@H](C)[C@@H](O[C@@H]2O[C@H](C)C[C@H]([N+](C)(C)C)[C@H]2O)[C@@]2(C)CC(C)C(O2)[C@H](C)[C@@H](O)[C@]1(C)O (stereo partly drawn) [Compound 62]
MIC (Escherichia coli NIHJ): > 100 µg/mL
MIC [1]: > 100 µg/mL
MIC [2]: > 100 µg/mL
MIC (Bacillus subtilis): > 100 µg/mL
MIC [3]: > 100 µg/mL
MIC (Bacillus cereus IFO 3001): > 100 µg/mL
